The test concerns HIV-1 (strain IIIIB). Briefly: MT4 cell assay (propidium iodide readout). Particulars: Human immunodeficiency virus 1, control and standard, MT4 cells, read-out: expected range of IC50 values. It counts as cell-based. As for the experimental part:
Antiviral HIV activity and compound-induced cytotoxicity were measured in parallel by means of a propidium iodide based procedure in the human T-cell lymphotropic virus transformed cell line MT4. Aliquots of the test compounds were serially diluted in medium (RPMI 1640, 10% fetal calf serum (FCS), and gentamycin) in 96-well plates (Costar 3598) using a Cetus Pro/Pette. Exponentially growing MT4 cells were harvested and centrifuged at 1000 rpm for 10 min in a Jouan centrifuge (model CR 4 12). Cell pellets were resuspended in fresh medium (RPMI 1640, 20% FCS, 20% IL-2, and gentamycin) to a density of 5×10^5 cells/ml. […] The plates were analyzed in an automated assay instrument (Screen Machine, Idexx Laboratories). […] The assay makes use of a propidium iodide dye to estimate the DNA content of each well. • B. For MTS readout, 20 μl CellTiter 96 AQ One Solution reagent (Promega #G3582) was added to each well. At 75 minutes following the addition of MTS reagent, absobance was read at 492 nm using a Tecan Sunrise 96-well plate reader. […]
For each assay plate, the results (relative fluorescence units, rfU, or OD values) of wells containing uninfected cells or infected cells with no compound were averaged, respectively. […] Percent of cells remaining is determined by the following formula: Percent of cells remaining=(compound-treated uninfected cells, rfU, or OD values/untreated uninfected cells)×100. […]

1 compound from patent US6995283B2, “Benzophenones as inhibitors of reverse transcriptase” (priority 2001, dated 2006) can be followed below.

On to `Cc1cn([C@H]2C[C@H](N=[N+]=[N-])[C@@H](CO)O2)c(=O)[nH]c1=O` [3′-azido-3′-deoxythymidine], for which the IC50 is 40 to 120 nM.

For orientation: IC50 means the concentration needed to halve the response being measured.
